By IC50 is commonly meant the concentration that gives 50% inhibition. A higher IC50 goes with weaker potency.

The text below walks through data of patent US4609725A, “Cardiac atrial peptides” (Merck & Co., Inc., priority 1984, dated 1986).

In experiment [1] the test system is serotonin contracted rabbit aortae. The experiment is classed as cell-based. The source says: (§1) Under the conditions described above, conversion of non-iodinated ANF peptide fragment to the iodinated peptide was approximately 48%, based on the absorbance of the respective HPLC fractions and by amino acid analysis.
Experiment [2] concerns serotonin contracted rat aortae. The experiment is classed as cell-based.
Source text: as §1

On to `CC[C@H](C)[C@@H]1NC(=O)[C@H](CCCNC(=N)N)NC(=O)[C@H](CC(=O)O)NC(=O)[C@H]([C@@H](C)CC)NC(=O)[C@H](CCCNC(=N)N)NC(=O)CNC(=O)CNC(=O)[C@H](Cc2ccccc2)NC(=O)[C@@H](NC(=O)[C@H](CO)NC(=O)[C@H](CO)NC(=O)[C@H](CCCNC(=N)N)NC(=O)[C@@H](N)CCCNC(=N)N)CSSC[C@@H](C(=O)N[C@@H](CC(N)=O)C(=O)N[C@@H](CO)C(=O)N[C@@H](Cc2ccccc2)C(=O)N[C@@H](CCCNC(=N)N)C(=O)N[C@@H](Cc2ccc(O)c(I)c2)C(=O)O)NC(=O)CNC(=O)[C@H](CC(C)C)NC(=O)CNC(=O)[C@H](CO)NC(=O)[C@H](CCC(N)=O)NC(=O)[C@H](C)NC(=O)CNC1=O` [iodinated ANF peptide fragment], for which the figures for the IC50 in experiment [1] and in experiment [2] were 1.65 nM and 1.05 nM, respectively. Further, the extent of vasorelaxation entry in experiment [1] (serotonin contracted rabbit aortae) and in experiment [2] (serotonin contracted rat aortae) was “complete vasorelaxation” each time.
